Tests used:
Format in all cases: functional
CCRF-CEM [1] = assay: Antiproliferative activity against human CCRF-CEM cells at 10 uM assessed as cell growth inhibition relative to control; settings: values are per cent of control
K562 = assay: Antiproliferative activity against human K562 cells at 10 uM assessed as cell growth inhibition relative to control; settings: values are per cent of control
[2] = Antiproliferative activity against human […] cells at 10 uM assessed as cell growth inhibition relative to control; settings: values are per cent of control
EKVX [3] = assay: Antiproliferative activity against human EKVX cells at 10 uM assessed as cell growth inhibition relative to control; settings: values are per cent of control
PC-3 = assay: Antiproliferative activity against human PC3 cells at 10 uM assessed as cell growth inhibition relative to control; settings: values are per cent of control
CCRF-CEM [4] = assay: Antiproliferative activity against human CCRF-CEM cells
MOLT-4 = assay: Antiproliferative activity against human MOLT4 cells
[5] = Antiproliferative activity against human […] cells
EKVX [6] = assay: Antiproliferative activity against human EKVX cells
HOP-62 [7] = assay: Antiproliferative activity against human HOP62 cells
NCI-H23 [8] = assay: Antiproliferative activity against human NCI-H23 cells
NCI-H322M = assay: Antiproliferative activity against human NCI-H322M cells
NCI-H522 [9] = assay: Antiproliferative activity against human NCI-H522 cells
COLO 205 = assay: Antiproliferative activity against human COLO205 cells
HCC 2998 [10] = assay: Antiproliferative activity against human HCC2998 cells
HCT-116 [11] = assay: Antiproliferative activity against human HCT116 cells
LOX IMVI [12] = assay: Antiproliferative activity against human LOXIMVI cells
Malme-3M = assay: Antiproliferative activity against human MALME-3M cells
SK-MEL-2 = assay: Antiproliferative activity against human SK-MEL-2 cells
SK-MEL-28 [13] = assay: Antiproliferative activity against human SK-MEL-28 cells
UACC-257 [14] = assay: Antiproliferative activity against human UACC257 cells
SF-268 = assay: Antiproliferative activity against human SF268 cells
SF-295 [15] = assay: Antiproliferative activity against human SF295 cells
SNB-75 = assay: Antiproliferative activity against human SNB75 cells
IGROV-1 = assay: Antiproliferative activity against human IGROV1 cells
OVCAR-5 [16] = assay: Antiproliferative activity against human OVCAR5 cells
OVCAR-8 = assay: Antiproliferative activity against human OVCAR8 cells
SK-OV-3 = assay: Antiproliferative activity against human SKOV3 cells
786-0 [17] = assay: Antiproliferative activity against human 786-0 cells
A498 [18] = assay: Antiproliferative activity against human A498 cells
CAKI-1 [19] = assay: Antiproliferative activity against human Caki1 cells
RXF 393 [20] = assay: Antiproliferative activity against human RXF393 cells
TK-10 = assay: Antiproliferative activity against human TK10 cells
BT-549 = assay: Antiproliferative activity against human BT549 cells
MCF7 = assay: Antiproliferative activity against human MCF7 cells
MDA-MB-435 = assay: Antiproliferative activity against human MDA-MB-435 cells
T47D [21] = assay: Antiproliferative activity against human T47D cells
DU-145 [22] = assay: Antiproliferative activity against human DU145 cells
HOP-62 [23] = assay: Antiproliferative activity against human HOP62 cells at 10 uM assessed as cell growth inhibition relative to control; settings: values are per cent of control
NCI-H23 [24] = assay: Antiproliferative activity against human NCI-H23 cells at 10 uM assessed as cell growth inhibition relative to control; settings: values are per cent of control
NCI-H522 [25] = assay: Antiproliferative activity against human NCI-H522 cells at 10 uM assessed as cell growth inhibition relative to control; settings: values are per cent of control
HCC 2998 [26] = assay: Antiproliferative activity against human HCC2998 cells at 10 uM assessed as cell growth inhibition relative to control; settings: values are per cent of control
HCT-116 [27] = assay: Antiproliferative activity against human HCT116 cells at 10 uM assessed as cell growth inhibition relative to control; settings: values are per cent of control
HCT-15 = assay: Antiproliferative activity against human HCT15 cells at 10 uM assessed as cell growth inhibition relative to control; settings: values are per cent of control
SW-620 = assay: Antiproliferative activity against human SW620 cells at 10 uM assessed as cell growth inhibition relative to control; settings: values are per cent of control
LOX IMVI [28] = assay: Antiproliferative activity against human LOXIMVI cells at 10 uM assessed as cell growth inhibition relative to control; settings: values are per cent of control
M14 = assay: Antiproliferative activity against human M14 cells at 10 uM assessed as cell growth inhibition relative to control; settings: values are per cent of control
SK-MEL-28 [29] = assay: Antiproliferative activity against human SK-MEL-28 cells at 10 uM assessed as cell growth inhibition relative to control; settings: values are per cent of control
SK-MEL-5 = assay: Antiproliferative activity against human SK-MEL-5 cells at 10 uM assessed as cell growth inhibition relative to control; settings: values are per cent of control
UACC-257 [30] = assay: Antiproliferative activity against human UACC257 cells at 10 uM assessed as cell growth inhibition relative to control; settings: values are per cent of control
SF-295 [31] = assay: Antiproliferative activity against human SF295 cells at 10 uM assessed as cell growth inhibition relative to control; settings: values are per cent of control
SF-539 = assay: Antiproliferative activity against human SF539 cells at 10 uM assessed as cell growth inhibition relative to control; settings: values are per cent of control
U-251 = assay: Antiproliferative activity against human U251 cells at 10 uM assessed as cell growth inhibition relative to control; settings: values are per cent of control
OVCAR-4 = assay: Antiproliferative activity against human OVCAR4 cells at 10 uM assessed as cell growth inhibition relative to control; settings: values are per cent of control
OVCAR-5 [32] = assay: Antiproliferative activity against human OVCAR5 cells at 10 uM assessed as cell growth inhibition relative to control; settings: values are per cent of control
786-0 [33] = assay: Antiproliferative activity against human 786-0 cells at 10 uM assessed as cell growth inhibition relative to control; settings: values are per cent of control
A498 [34] = assay: Antiproliferative activity against human A498 cells at 10 uM assessed as cell growth inhibition relative to control; settings: values are per cent of control
CAKI-1 [35] = assay: Antiproliferative activity against human Caki1 cells at 10 uM assessed as cell growth inhibition relative to control; settings: values are per cent of control
RXF 393 [36] = assay: Antiproliferative activity against human RXF393 cells at 10 uM assessed as cell growth inhibition relative to control; settings: values are per cent of control
MDA-MB-231 = assay: Antiproliferative activity against human MDA-MB-231 cells at 10 uM assessed as cell growth inhibition relative to control; settings: values are per cent of control
MDA-MB-468 = assay: Antiproliferative activity against human MDA-MB-468 cells at 10 uM assessed as cell growth inhibition relative to control; settings: values are per cent of control
T47D [37] = assay: Antiproliferative activity against human T47D cells at 10 uM assessed as cell growth inhibition relative to control; settings: values are per cent of control
DU-145 [38] = assay: Antiproliferative activity against human DU145 cells at 10 uM assessed as cell growth inhibition relative to control; settings: values are per cent of control

Compound `CCOC(=O)C[C@H]1[C@@H](O[Si](C)(C)C(C)(C)C)[C@H](n2cnc3c(NC(=O)Nc4ccccc4)ncnc32)O[C@@H]1COC(=O)NC` has a growth, % of control at 10 µM (CCRF-CEM [1]) of 57%, a growth, % of control at 10 µM (K562) of 23% and a growth, % of control at 10 µM [2] of 39%. For the same compound, the growth, % of control at 10 µM (EKVX [3]) was 68%, the growth, % of control at 10 µM (PC-3) was 32% and the GI50 (CCRF-CEM [4]) was 3.23 µM. It also gave a GI50 (MOLT-4) of 1.99 µM, a GI50 [5] of 2.16 µM and a GI50 (EKVX [6]) of 3.39 µM. The GI50 (HOP-62 [7]) was 14.7 µM, the GI50 (NCI-H23 [8]) was 12.9 µM and the GI50 (NCI-H322M) was 31.7 µM. For the same compound, the GI50 (NCI-H522 [9]) was 9.58 µM, the GI50 (COLO 205) was 7.7 µM and the GI50 (HCC 2998 [10]) was 8.76 µM. For the same compound, the GI50 (HCT-116 [11]) was 2.33 µM, the GI50 (LOX IMVI [12]) was 7.78 µM and the GI50 (Malme-3M) was 3.34 µM. The GI50 (SK-MEL-2) was 13.2 µM, the GI50 (SK-MEL-28 [13]) was 7.77 µM and the GI50 (UACC-257 [14]) was 20.8 µM. The GI50 (SF-268) was 5.06 µM, the GI50 (SF-295 [15]) was 2.83 µM and the GI50 (SNB-75) was 10.3 µM. The GI50 (IGROV-1) was 13.7 µM, the GI50 (OVCAR-5 [16]) was 12.8 µM and the GI50 (OVCAR-8) was 10.3 µM. The GI50 (SK-OV-3) was 40.4 µM, the GI50 (786-0 [17]) was 7.94 µM and the GI50 (A498 [18]) was 4.65 µM. For the same compound, the GI50 (CAKI-1 [19]) was 3.72 µM, the GI50 (RXF 393 [20]) was 2.94 µM and the GI50 (TK-10) was 10.7 µM. It also gave a GI50 (BT-549) of 2.07 µM, a GI50 (MCF7) of 3.37 µM and a GI50 (MDA-MB-435) of 3.26 µM. The GI50 (T47D [21]) was 4.95 µM, the GI50 (DU-145 [22]) was 5.21 µM and the growth, % of control at 10 µM (HOP-62 [23]) was 77%. It also gave a growth, % of control at 10 µM (NCI-H23 [24]) of 88%, a growth, % of control at 10 µM (NCI-H522 [25]) of 45% and a growth, % of control at 10 µM (HCC 2998 [26]) of -9%. The growth, % of control at 10 µM (HCT-116 [27]) was 17%, the growth, % of control at 10 µM (HCT-15) was 52% and the growth, % of control at 10 µM (SW-620) was 72%. The growth, % of control at 10 µM (LOX IMVI [28]) was 49%, the growth, % of control at 10 µM (M14) was 57% and the growth, % of control at 10 µM (SK-MEL-28 [29]) was 72%. For the same compound, the growth, % of control at 10 µM (SK-MEL-5) was 24%, the growth, % of control at 10 µM (UACC-257 [30]) was 60% and the growth, % of control at 10 µM (SF-295 [31]) was 66%. It also gave a growth, % of control at 10 µM (SF-539) of 33%, a growth, % of control at 10 µM (U-251) of 52% and a growth, % of control at 10 µM (OVCAR-4) of 42%. It also gave a growth, % of control at 10 µM (OVCAR-5 [32]) of 94%, a growth, % of control at 10 µM (786-0 [33]) of 73% and a growth, % of control at 10 µM (A498 [34]) of 77%. It also gave a growth, % of control at 10 µM (CAKI-1 [35]) of 61%, a growth, % of control at 10 µM (RXF 393 [36]) of 35% and a growth, % of control at 10 µM (MDA-MB-231) of 72%. For the same compound, the growth, % of control at 10 µM (MDA-MB-468) was 62%, the growth, % of control at 10 µM (T47D [37]) was 29% and the growth, % of control at 10 µM (DU-145 [38]) was 59%.

From ChEMBL document CHEMBL1154382, “Preliminary SAR analysis of novel antiproliferative N(6),5'-bis-ureidoadenosine derivatives” (2009)
